Assay results from ChEMBL document CHEMBL5321287, “Discovery, Synthesis, and Evaluation of Novel Dual Inhibitors of a Vascular Endothelial Growth Factor Receptor and Poly(ADP-Ribose) Polymerase for BRCA Wild-Type Breast Cancer Therapy” (J Med Chem, 2023).
Active and inactive are the calls of the source. The calls are words filed in the database; no cut-off is given here.

What was measured:
MDA-MB-436 = assay: Antiproliferative activity against human MDA-MB-436 cells assessed as cell growth inhibition
MCF7 [1] = assay: Induction of cell cycle arrest at S phase in human MCF7 cells at 4 uM by Annexin-V-FLUOS staining based flow cytometry; format: functional
MDA-MB-231 [2] = assay: Induction of apoptosis in human MDA-MB-231 cells assessed as increase in cleaved caspase-3 level at 4 uM incubated for 2 days in presence of 1:1 of compound:Olaparib by immunoblot analysis; format: functional, cell-based; conditions: time 2.0 day
MDA-MB-231 [3] = assay: Antimigratory activity in human MDA-MB-231 cells assessed as downregulation of MMP-2 level at 4 uM in presence of 1:1 of compound:Olaparib by DAPI staining based immunofluorescence analysis; format: functional, cell-based
MCF7 [4] = assay: Antimigratory activity in human MCF7 cells assessed as downregulation of MMP-2 level at 4 uM by DAPI staining based immunofluorescence analysis; format: functional, cell-based
MCF7 [5] = assay: Antimigratory activity in human MCF7 cells assessed as downregulation of MMP-2 level at 4 uM in presence of 1:1 of compound:Olaparib by DAPI staining based immunofluorescence analysis; format: functional, cell-based
MCF7 [6] = assay: Antimigratory activity in human MCF7 cells assessed as downregulation of MMP-2 level at 4 uM incubated for 2 days by immunoblot analysis; format: functional, cell-based; conditions: time 2.0 day
MDA-MB-231 [7] = assay: Induction of DNA damage in human MDA-MB-231 cells assessed as increase in gamma-H2AX level at 4 uM incubated for 48 hrs in presence of 1:1 of compound:Olaparib by DAPI staining based immunofluorescence analysis; format: functional, cell-based
MCF7 [8] = assay: Induction of DNA damage in human MCF7 cells assessed as increase in gamma-H2AX level at 4 uM incubated for 48 hrs in presence of 1:1 of compound:Olaparib by DAPI staining based immunofluorescence analysis; format: functional, cell-based
MDA-MB-231 [9] = assay: Antimigratory activity in human MDA-MB-231 cells xenografted in BALB/c nude mouse assessed as downregulation of MMP2 level at 50 mg/kg, po for 14 days in presence of 1:1 of compound:Olaparib by H and E staining based IHC analysis; format: functional, organism-based; conditions: time 14.0 day
MDA-MB-231 [10] = assay: Antimigratory activity in human MDA-MB-231 cells xenografted in BALB/c nude mouse assessed as upregulation of E-cadherin level at 50 mg/kg, po for 14 days in presence of 1:1 of compound:Olaparib by H and E staining based IHC analysis; format: functional, organism-based; conditions: time 14.0 day
[11] = molecular target: Vascular endothelial growth factor receptor 1 (Homo sapiens, UniProt P17948); assay: Inhibition of VEGFR1 phosphorylation at tyr1333 residue in human MDA-MB-231 cells xenografted in BALB/c nude mouse at 25 to 50 mg/kg, po for 14 days in presence of 1:1 of compound:Olaparib by Western blot analysis; format: organism-based; conditions: dose 25-50 mg/kg, time 14.0 day
MDA-MB-231 [12] = assay: Induction of HR DNA repair in human MDA-MB-231 cells xenografted in BALB/c nude mouse assessed as decrease in BRCA1 level at 50 mg/kg, po for 14 days in presence of 1:1 of compound:Olaparib by Western blot analysis; format: functional, organism-based; conditions: time 14.0 day
MDA-MB-231 [13] = assay: Antimetastatic activity against human MDA-MB-231 cells xenografted in lungs of BALB/c nude mouse assessed as decrease in lung metastatic nodules at 50 mg/kg administered once a day measured after 14 days in presence of 1:1 of compound:Olaparib by H and E staining based analysis; format: functional, organism-based; conditions: time 14.0 day

Sequence of Vascular endothelial growth factor receptor 1 (P17948 whole entry): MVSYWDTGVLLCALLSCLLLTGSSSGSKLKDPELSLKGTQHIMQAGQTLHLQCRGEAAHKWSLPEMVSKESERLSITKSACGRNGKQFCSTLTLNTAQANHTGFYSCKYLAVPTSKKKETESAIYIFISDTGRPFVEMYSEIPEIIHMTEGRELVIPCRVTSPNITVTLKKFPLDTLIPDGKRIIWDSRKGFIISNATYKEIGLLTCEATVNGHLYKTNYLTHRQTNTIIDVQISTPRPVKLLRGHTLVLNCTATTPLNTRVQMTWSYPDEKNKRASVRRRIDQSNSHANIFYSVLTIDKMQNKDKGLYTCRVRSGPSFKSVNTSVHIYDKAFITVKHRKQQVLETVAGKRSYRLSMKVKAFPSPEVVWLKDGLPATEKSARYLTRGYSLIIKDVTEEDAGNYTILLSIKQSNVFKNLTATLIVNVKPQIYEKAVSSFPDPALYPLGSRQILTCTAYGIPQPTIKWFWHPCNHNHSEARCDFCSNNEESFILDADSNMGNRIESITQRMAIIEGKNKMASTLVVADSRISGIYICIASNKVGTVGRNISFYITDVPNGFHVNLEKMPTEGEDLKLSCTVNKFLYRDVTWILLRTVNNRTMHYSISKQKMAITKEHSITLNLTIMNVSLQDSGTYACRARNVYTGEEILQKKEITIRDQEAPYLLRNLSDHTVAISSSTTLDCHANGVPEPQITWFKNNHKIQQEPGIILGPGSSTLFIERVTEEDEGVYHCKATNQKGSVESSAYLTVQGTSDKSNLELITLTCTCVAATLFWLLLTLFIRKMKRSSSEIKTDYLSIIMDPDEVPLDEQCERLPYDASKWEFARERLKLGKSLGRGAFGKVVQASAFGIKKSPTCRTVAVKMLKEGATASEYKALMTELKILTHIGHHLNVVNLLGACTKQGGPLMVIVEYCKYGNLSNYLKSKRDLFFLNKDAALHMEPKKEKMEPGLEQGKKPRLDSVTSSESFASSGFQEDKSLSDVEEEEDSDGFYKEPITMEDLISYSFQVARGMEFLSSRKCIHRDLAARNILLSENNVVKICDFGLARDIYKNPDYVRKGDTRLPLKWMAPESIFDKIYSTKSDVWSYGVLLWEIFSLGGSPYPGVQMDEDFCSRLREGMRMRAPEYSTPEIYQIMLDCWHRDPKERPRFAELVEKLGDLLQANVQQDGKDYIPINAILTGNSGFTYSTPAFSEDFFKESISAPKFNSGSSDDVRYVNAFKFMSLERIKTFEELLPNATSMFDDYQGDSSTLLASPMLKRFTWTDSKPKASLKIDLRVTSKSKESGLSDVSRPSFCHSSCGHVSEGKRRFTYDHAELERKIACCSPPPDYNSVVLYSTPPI

## Cc1ccc(Nc2nccc(N(C)c3ccc4c(C)n(C)nc4c3)n2)cc1S(N)(=O)=O [PAZOPANIB]
MDA-MB-436
  IC50: > 10 µM
MCF7 [1]
  Activity: Active
MDA-MB-231 [2]
  Activity: Active
MDA-MB-231 [3]
  Activity: Active
MCF7 [4]
  Activity: Active
MCF7 [5]
  Activity: Active
MCF7 [6]
  Activity: Active
MDA-MB-231 [7]
  Activity: Active
MCF7 [8]
  Activity: Active
MDA-MB-231 [9]
  Activity: Active
MDA-MB-231 [10]
  Activity: Active
[11]
  inhibition: Active
MDA-MB-231 [12]
  Activity: Active
MDA-MB-231 [13]
  Activity: Active
